According to paper PMC6009937, “Comparing hydrazine-derived reactive groups as inhibitors of quinone-dependent amine oxidases” (Journal of Enzyme Inhibition and Medicinal Chemistry, 2017):
Values joined by “and” are separate entries in the source; they are usually repeats but may differ in a detail not shown here. Equal entries are not always repeated. Where two headings read alike, the source gives them in different places.

Legend:
[1] = target: T1, lentil seedling diamine oxidase (LSDAO) (Lens culinaris, UniProt P49252); assay: LSDAO activity assay (Amplex UltraRed/HRP fluorescence) after preincubation of enzyme with inhibitor; type: biochemical
T1 construct: Eight-day-old lentil seedlings (Lens esculenta) were blended and extracted; from tissue; host or cells: eight-day-old lentil seedlings (Lens esculenta)
T1 sequence (P49252 19-667): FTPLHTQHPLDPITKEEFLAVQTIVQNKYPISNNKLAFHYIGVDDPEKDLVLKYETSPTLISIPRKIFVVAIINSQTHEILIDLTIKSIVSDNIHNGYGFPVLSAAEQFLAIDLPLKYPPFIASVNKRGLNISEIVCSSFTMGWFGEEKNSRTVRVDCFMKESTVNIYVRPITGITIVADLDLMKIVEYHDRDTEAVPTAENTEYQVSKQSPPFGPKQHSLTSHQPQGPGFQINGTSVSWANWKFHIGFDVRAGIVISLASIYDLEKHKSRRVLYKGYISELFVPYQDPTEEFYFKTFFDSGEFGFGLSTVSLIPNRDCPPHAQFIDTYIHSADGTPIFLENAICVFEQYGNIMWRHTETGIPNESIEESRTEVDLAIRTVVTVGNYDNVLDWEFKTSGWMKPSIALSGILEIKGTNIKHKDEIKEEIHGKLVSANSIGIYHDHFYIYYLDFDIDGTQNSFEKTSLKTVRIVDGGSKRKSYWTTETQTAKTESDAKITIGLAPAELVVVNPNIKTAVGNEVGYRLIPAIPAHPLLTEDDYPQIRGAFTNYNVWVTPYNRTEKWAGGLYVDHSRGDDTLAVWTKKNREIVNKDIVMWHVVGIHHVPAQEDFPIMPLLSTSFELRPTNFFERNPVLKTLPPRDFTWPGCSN
Description: The LSDAO extraction process was carried out at 4 °C according to the method of Floris et al.[30] with slight modifications. Eight-day-old lentil seedlings (Lens esculenta) were blended and extracted with phosphate buffer (5 mM, pH 6.0, buffer A). Ammonium sulfate (230 g/L, 40% saturation) was used to precipitate contaminants, and then additional ammonium sulfate (125 g/L, 60% saturation) was used to precipitate the LSDAO. The crude precipitate was redissolved, dialyzed against buffer A, applied to a DEAE column, and eluted with buffer A. Active fractions were adjusted to pH 6.5, applied to a CM resin column, and eluted with 5 mM phosphate buffer, pH 6.5. Active fractions were concentrated and the buffer was changed to 10 mM phosphate, pH 7.0 before the protein was applied to a Sephacryl S-300 column and eluted with the same buffer. The concentration of the LSDAO dimer was determined from its absorption at 278 nm in 0.1 M phosphate buffer[31] using a molar extinction coefficient of 2.45 × 10^5 M^−1 cm^−1.
(§1) The activity assay is adopted from the method described by Palamakumbura et al.[35]. Enzyme and inhibitor were incubated at 37 °C for the desired inhibition time, diluted into the assay mixture, and analyzed by fluorescence (Agilent Technologies Cary Eclipse Fluorescence Spectrometer, Cary Eclipse Software, 37 °C, λex = 568 and λem = 581 nm). The assay was carried out in boric acid buffer (50 mM, pH 8.2) with 1.2 M urea for LOX or in phosphate buffer (0.1 M, pH = 7.0) for LSDAO. The final reagent concentrations in the assay mixture were 10 mM cadaverine, 10 μM Amplex UltraRed (Life Technologies, Carlsbad, CA), and 1 U/mL horse radish peroxidase (Amresco, Solon, OH).
(§2) The enzyme activity, which is proportional to the rate of increase in fluorescence, was measured for each experiment. Residual activity was calculated by dividing each rate by a maximum rate determined in the absence of inhibitor such that [residual activity] = ([rate with inhibitor] – [baseline rate])/([maximum rate] – [baseline rate]). […] The residual activities from replicate experiments were averaged. For each inhibitor concentration, log([average residual activity]) was plotted against inhibition time. Linear lines of best fit forced through the origin were calculated for each data set using Graphpad Prism 5.0b (La Jolla, CA). For each inhibitor, the slopes of these lines (min^−1) were plotted as –1/slope against 1/[inhibitor concentration] to produce a Kitz–Wilson plot.
(§3) To quantify the selectivity of each inhibitor, we defined a numerical “selectivity factor” as the inhibitor's IC50 value for LOX divided by its IC50 value for LSDAO (Figure 3(C)).
From the slopes and y-intercepts of these lines, the kinetic parameters KI (the reversible binding constant) and k2 (the rate constant for irreversible reaction) (Figure 5(A)) can be calculated.

Lysyl oxidase (LOX) = target: T2, Lysyl oxidase (LOX) (Bos taurus, UniProt P33072); assay: LOX activity assay (Amplex UltraRed/HRP fluorescence) after preincubation of enzyme with inhibitor; type: biochemical, bovine; conditions: for Selectivity factor (LOX IC50 value divided by LSDAO IC50 value): LOX vs LSDAO; for remaining activity at 4 µM: 4 µM inhibitor; for remaining activity at 7 µM: 7 µM inhibitor; for remaining activity at 20 µM: 20 µM inhibitor; for remaining activity at 100 µM: 100 µM inhibitor
T2 construct: LOX was isolated from bovine aorta; from tissue; host or cells: bovine aorta
T2 sequence (P33072 170-418): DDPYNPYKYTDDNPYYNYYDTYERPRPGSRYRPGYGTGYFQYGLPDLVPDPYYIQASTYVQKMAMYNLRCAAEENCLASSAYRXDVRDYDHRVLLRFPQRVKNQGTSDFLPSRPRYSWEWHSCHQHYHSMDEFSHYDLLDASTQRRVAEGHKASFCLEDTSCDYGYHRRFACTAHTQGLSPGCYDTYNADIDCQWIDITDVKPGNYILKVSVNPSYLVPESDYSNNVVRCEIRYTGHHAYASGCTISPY
Description: LOX was isolated from bovine aorta at 4 °C using slight modifications of previously published procedures. All steps were carried out at in 16 mM phosphate, pH 7.8 (buffer B). After blending the aorta in buffer B containing 400 mM NaCl and 1 mM EDTA to remove soluble contaminants, the enzyme was extracted with buffer B containing 4 M urea and 1 mM EDTA. The crude enzyme extract was filtered, diluted with an equal volume of buffer B to obtain a urea concentration of 2 M, and loaded onto a DEAE column. After washing with buffer B containing 400 mM NaCl, the enzyme was eluted with buffer B containing 400 mM NaCl and 6 M urea. The urea concentration was reduced to 4 M by adding buffer B, and the solution was added to a slurry of ceramic hydroxyapatite in buffer B containing 4 M urea. After stirring, the supernatant was removed by filtration and dialyzed overnight against buffer B. The solution was added to a slurry of ceramic hydroxyapatite in buffer B, washed with small portions of 1 M phosphate and then buffer B, and then eluted with buffer B containing 6 M urea and 500 mM NaCl. After concentration to about 20 mL, the protein was applied to a Sephacryl S-200 gel filtration column preequilibrated with buffer B containing 50 mM NaCl, 1 mM EDTA, and 6 M urea and eluted with the same buffer. Active fractions were concentrated to 1 mL. Total protein concentration for 6 M urea solutions[33] was determined by its absorption at 280 nm using a molar extinction coefficient of 8.39 × 10^4 M^−1 cm ^−1.
as §1, §2, §3

[2] = stated in the text without reference; cited from earlier work
LOX [3] = conditions: literature data reprocessed by Kitz-Wilson analysis, cited from earlier work
LOX [4] = system: LOX; set-up: method as in PMID 6131892; conditions: cited from earlier work
[5] = 10 min, read-out: Average Percent Activity Remaining, LSDAO
[6] = Kitz-Wilson plot, pH 8.0 and 37 °C
[7] = 4 min, read-out: Average Percent Activity Remaining, LSDAO
[8] = Kitz-Wilson analysis, rate constant for irreversible reaction
[9] = 4 min, read-out: Average Percent Activity Remaining, LOX
[10] = 10 min, read-out: Average Percent Activity Remaining, LOX

NNc1ccccc1 [compound 1, phenylhydrazine, reference compound]
IC50 [1]: 0.01 µM | remaining activity at 0.005 µM [1, 5]: 80% | remaining activity at 0.0075 µM [1, 5]: 62% | remaining activity at 0.01 µM [1, 5]: 50% | remaining activity at 0.015 µM [1, 5]: 13% | remaining activity at 0.03 µM [1, 5]: 0% | remaining activity at 0.1 µM [1, 5]: 0% | remaining activity at 0.5 µM [1, 5]: 0% | IC50 (Lysyl oxidase (LOX)): 6 µM | Selectivity factor (LOX IC50 value divided by LSDAO IC50 value) (Lysyl oxidase (LOX); 10-min preincubation): 600 | pKa of conjugate acid [2]: 5 | LOX k2 (range) (LOX [3]): 0.32 (0.16 to >10) min^-1 and 0.32 min^-1 | KI (inactivation) (LOX [3]; read-out: LOX KI^-1 (range)): 13 µM

N#CCCN [compound 2, β-aminopropionitrile]
Inhibition of LOX at 10 μM (LOX [4]; 10 μM, 2-h incubation): full inhibition | IC50 (LOX [4]; 2-h incubation): 0.2 µM | KI (inactivation) (LOX [4]; [6]): 6 µM | k2 LOX (LOX [4]; [6]): 0.16 min⁻¹

CCCCCC(=O)NN [compound 3]
IC50 ([1]; 10-min preincubation, 37 °C, read-out: IC50 LSDAO): 2 µM | remaining activity at 1 µM [1, 7]: 90% | remaining activity at 2 µM [1, 7]: 80% | remaining activity at 4 µM [1, 7]: 71% | remaining activity at 8 µM [1, 7]: 54% | remaining activity at 14 µM [1, 7]: 40% | remaining activity at 20 µM [1, 7]: 33% | remaining activity at 40 µM [1, 7]: 4% | remaining activity at 500 µM [1, 7]: 0.7% | remaining activity at 1 µM [1, 5]: 76% | remaining activity at 2 µM [1, 5]: 52% | remaining activity at 4 µM [1, 5]: 33% | remaining activity at 8 µM [1, 5]: 13% | remaining activity at 14 µM [1, 5]: 8% | remaining activity at 20 µM [1, 5]: 4% | LSDAO k2 (range) [1, 8]: 0.67 (0.37–3.3) min^-1 and 0.7 min^-1 and 0.67 min^-1 | KI (inactivation) ([1]; Kitz-Wilson analysis, reversible binding constant, read-out: LSDAO KI^-1 (range)): 50 µM and 54 µM | IC50 (Lysyl oxidase (LOX); 10-min preincubation, 37 °C, read-out: IC50 LOX): 20 µM | Selectivity factor (LOX IC50 value divided by LSDAO IC50 value) (Lysyl oxidase (LOX); 10-min preincubation): 10 | remaining activity at 4 µM (Lysyl oxidase (LOX); [9]): 93% | remaining activity at 7 µM (Lysyl oxidase (LOX); [9]): 78% | remaining activity at 20 µM (Lysyl oxidase (LOX); [9]): 69% | remaining activity at 100 µM (Lysyl oxidase (LOX); [9]): 27% | remaining activity at 500 µM (Lysyl oxidase (LOX); 4 min, 500 µM inhibitor, read-out: Average Percent Activity Remaining, LOX): 8% | remaining activity at 4 µM (Lysyl oxidase (LOX); [10]): 84% | remaining activity at 7 µM (Lysyl oxidase (LOX); [10]): 75% | remaining activity at 20 µM (Lysyl oxidase (LOX); [10]): 48% | remaining activity at 100 µM (Lysyl oxidase (LOX); [10]): 3% | LOX k2 (range) (Lysyl oxidase (LOX); [8]): 0.40 (0.23–1.4) min^-1 and 0.4 min^-1 and 0.40 min^-1 | KI (inactivation) (Lysyl oxidase (LOX); Kitz-Wilson analysis, reversible binding constant, read-out: LOX KI^-1 (range)): 200 µM | fold lower affinity for LOX than phenylhydrazine (Lysyl oxidase (LOX); compared to phenylhydrazine): 3 fold
